Data: patent publication US20250236878A1 (priority 2019, published 2025)
Where two headings read alike, the source gives them in different places.

How the values were obtained:
[1] = tested on: Citrus trees infected with CLas; assay: Recovery composition trunk injection: 'Valencia' orange fruit yield (Examples 3, 19); format: in vivo, Citrus sinesis; conditions: for Average Yield (Relative to Untreated) / Average Yield (kg per tree): 'Valencia' orange; for Average Yield (Relative to Untreated) / Average Yield (kg per tree) / increased yield compared to the untreated control: trunk injection; for increased yield compared to the untreated control: 'Valencia' trees; for yield, average relative to control: 'Valencia', combined average of 2 sites (Table 56)
[2] = tested on: Citrus trees infected with Candidatus Liberibacter asiaticus; format: in vivo, Citrus x paradisi
[3] = tested on: Citrus trees infected with CLas; set-up: species or system Citrus sinesis; conditions: in vivo
[4] = tested on: Citrus trees infected with CLas; format: in vivo, Citrus x paradisi; Citrus sinesis; conditions: average of 'Ruby Red' and 'Valencia'
Text: Treatments as previously described in Example 3; β-1,3-Endoglucanase from barley SEQ ID NO: 731 (Treatment 1) and Bt.4Q7Flg22 from Bacillus thurigiensis SEQ ID NO: 226 (Treatment 5) increased fruit yield (kg/tree) as described in Table 56. Fruit quality, and juice quality of ‘Valencia’ oranges are described in Table 57.
For direct comparison of the treatment results between grapefruit (‘Ruby Red’) and orange (‘Valencia’) are referenced in Table 56 above.

[5] = tested on: Citrus trees infected with Candidatus Liberibacter asiaticus (CLas); set-up: species or system Citrus sinensis; conditions: in vivo
[6] = tested on: Citrus trees infected with Candidatus Liberibacter asiaticus (CLas); set-up: species or system Citrus sinensis; conditions: in vivo; remark: listed apart in the source
[7] = tested on: Citrus trees infected with Candidatus Liberibacter asiaticus; set-up: species or system Citrus x paradisi; conditions: in vivo
[8] = tested on: Candidatus Liberibacter asiaticus (CLas); conditions: in vivo
[9] = tested on: corn hybrids Beck's 6127 BHMF and 6127 DVMF; conditions: in vivo
[10] = tested on: field mustard (Brassica rapa) seedlings; assay: Root hair and lateral root elongation in liquid-culture grown field mustard seedlings (Example 13); conditions: for Experiment A: Average Root Hair Length Per Plant (mm) / Experiment B: Average Length of Three Longest Lateral Roots Per Plant (mm) / Experiment A: Average Root Hair Length Per Plant, % of UTC / Experiment B: Average Length of Three Longest Lateral Roots Per Plant, % of UTC: field mustard seedlings, peptide 10 μM; for Experiment A: Average Root Hair Length Per Plant (mm) / Experiment B: Average Length of Three Longest Lateral Roots Per Plant (mm) / average lateral root length compared to untreated control / average root hair length compared to untreated control / increases in average lateral root length relative to control / increases in root hair length relative to control: liquid culture; for Experiment A: Average Root Hair Length Per Plant (mm) / Experiment B: Average Length of Three Longest Lateral Roots Per Plant (mm): about three days; for Experiment A: Average Root Hair Length Per Plant (mm): UTC = 0.137; for Experiment B: Average Length of Three Longest Lateral Roots Per Plant (mm): UTC = 0.632; for average lateral root length compared to untreated control / average root hair length compared to untreated control / increases in average lateral root length relative to control / increases in root hair length relative to control: approximately three days
[11] = tested on: HLB-infected citrus trees; assay: Citrus trials of Examples 20-24: fruit yield, size, count and drop, average over orange and grapefruit trials; format: in vivo, Citrus sinesis; Citrus paradisi
Description: All fruit with a diameter greater than or equal to 1.6 inches (40 mm) were hand-picked and collected for each tree. The total “Fruit Weight” (in kilograms) per individual tree was measured and recorded. Trees with total fruit weights less than or greater than 2 standard deviations (2STDEV) from the trial mean were considered to be outliers and removed from the dataset. Fruit size was assessed as the “Average Weight per Fruit” in grams (weight of 20 random fruit per tree, divided by 20) and “Average Fruit Diameter” in millimeters, as described in Example 1. The “Average Fruit Count” per tree was assessed as the total “Fruit Weight” divided by “Average Weight per Fruit”. “Fruit Drop” was assessed as for Example 1. Fruit quality was assessed as for Example 2, with the exception that one set of fruit consisted for 15 total fruit, each corresponding to a sampling of 3 fruit from 5 trees of the same experimental treatment block. Each set of 15 fruit were weighed (gram; g) and then juiced together. Average yield, % fruit drop, fruit size, and juice quality for each of the tested compositions are described in Examples 20-24.

[12] = tested on: HLB-infected citrus trees; set-up: species or system Citrus sinesis; Citrus paradisi; conditions: in vivo

Row | Molecule | Experiment A: Average Root Hair Length Per Plant (mm) [10] [mm] | Experiment B: Average Length of Three Longest Lateral Roots Per Plant (mm) [10] [mm] | Experiment A: Average Root Hair Length Per Plant, % of UTC [10] | Experiment B: Average Length of Three Longest Lateral Roots Per Plant, % of UTC [10] | average lateral root length compared to untreated control [10] | average root hair length compared to untreated control [10] | further results
1 | N[C@@H](CS)C(=O)O [L-Cysteine, L-cysteine] |  |  |  |  |  |  | Average Yield (Relative to Untreated) [1]: (105%); Average Yield (kg per tree) [1]: 42.3 kg per tree; increased yield compared to the untreated control [1]: +2.0 kg per tree; yield, average relative to control [1]: 103%; Average Yield (Relative to Untreated) ([2]; […], trunk injection): (101%); Average Yield (kg per tree) ([2]; […], trunk injection): 34.8 kg per tree; Average Fruit Diameter (Relative to Untreated) [3]: (104%); Average Fruit Diameter (mm) [3]: 62.52 mm; Brix:CA Ratio [3]: 12.76; Brix:CA Ratio (Relative to Untreated) [3]: (+1.51); fruit size and ^oBrixc to Citric Acid ratio (Brix:CA) relative to the untreated control [3]: increased; Average Yield (Relative to Untreated), Average of 2 sites [4]: (103%)
2 | DRLSSGKRINSAKDDAAGLAIA (listed as Bacillus thuringiensis) [Bt.4Q7Flg22Syn01, Modified FLG22-Bt4Q7 (S13K)] |  |  |  |  |  |  | Brix [5]: 9.4; juice content [5]: 46%; total increased yield (kg) per tree [6]: 26%
3 | DRLSSGKRINSASDDAAGLAIA (listed as Bacillus thuringiensis) [Bt.4Q7Flg22, Flg22 flagellin-associated polypeptide from Bacillus thuringiensis strain 4Q7] |  |  |  |  |  |  | Average Yield (Relative to Untreated) [1]: (119%); Average Yield (kg per tree) [1]: 48.1 kg per tree; increased yield compared to the untreated control [1]: 7.8 kg per tree; yield, average relative to control [1]: 113%; fruit size, juice volume, % juice content and ^oBrixc to Citric Acid ratio (Brix:CA) relative to the untreated control [7]: increased; total increased yield (kg) per tree [6]: 33%; decreased bacterial titers relative to the untreated control [8]: 20%; reduction in CLas bacterial titers compared to initial levels [8]: 16%; average yield benefit over the control corn plants [9]: +6.44 flu/Ac; Average Yield (Relative to Untreated) ([2]; in vivo): (108%); Average Yield (kg per tree) ([2]; in vivo): 37.2 kg per tree; increased yield compared to the untreated control ([2]; in vivo): 2.6 kg per tree; Average Fruit Diameter (Relative to Untreated) [3]: (101%); Average Fruit Diameter (mm) [3]: 60.72 mm; Brix:CA Ratio [3]: 12.11; Brix:CA Ratio (Relative to Untreated) [3]: (+0.86); fruit size and ^oBrixc to Citric Acid ratio (Brix:CA) relative to the untreated control [3]: increased; Average Yield (Relative to Untreated), Average of 2 sites [4]: (113%)
4 | GGARAAPAGEER (Brachypodium distachyon) [SEQ ID NO: 747] | 0.137 | 0.959 | (99% of UTC) | (152% of UTC) | Increased | did not improve | 
5 | GGIRAAPT (listed as Physcomitrella patens) [SEQ ID NO: 745] | 0.145 | 0.853 | (105% of UTC) | (135% of UTC) | Increased | increased | 
6 | GGIRAAPTGKER [SEQ ID NO: 754] |  |  |  |  | Increased | increased | 
7 | GGIRAAPTGNER (Glycine max) [GmRHPP, Root Hair Promoting Peptide, Glycine max] | 0.172 | 0.971 | (125% of UTC) | (154% of UTC) | Increased | increased | increased yield (kg fresh fruit per tree) relative to control trees treated with surfactant control alone, on average ([11]; foliar (Table 73)): 13.9%; decrease in fruit drop relative to surfactant control, on average ([11]; foliar (Table 74)): 22%; more fruit retained at harvest relative to surfactant control, on average ([11]; foliar (Table 74)): 19%; effect on fruit size ([11]; foliar (Table 75)): no effect; fruit weigh more than fruit from control trees treated with surfactant alone, on average ([11]; foliar (Table 75)): 6.2%; ^oBrixc:Citric Acid Ratio and pounds-solids per tree [12]: increased; more total sugar than control trees treated with surfactant alone, on average [12]: 13.500; increases in average lateral root length relative to control [10]: +54%; increases in root hair length relative to control [10]: +25%; reduction in CLas bacterial titers compared to initial levels [8]: 17%
8 | GGIRAARTGNER [SEQ ID NO: 753] |  |  |  |  | Increased | increased | 
9 | GGIRASPTGNER [SEQ ID NO: 755] |  |  |  |  | Increased | increased | 
10 | GGIRATPTENER (Glycine max) [SEQ ID NO: 607] |  |  |  |  | Increased | increased | 
11 | GGIRDAPTGNER [SEQ ID NO: 752] |  |  |  |  | Increased | increased | 
12 | GGIRRAPTGNER [SEQ ID NO: 751] |  |  |  |  | Increased | increased | 
13 | GGIRRARTGNE (listed as Vigna radiata) [SEQ ID NO: 750] | 0.147 |  | (107% of UTC) |  | Increased | increased | 
14 | GGIRTAITGNE (listed as Vigna angularis) [SEQ ID NO: 748] | 0.151 | 0.929 | (110% of UTC) | (147% of UTC) | Increased | increased | 
15 | GGIRVAATGKER (Glycine max) [SEQ ID NO: 608] |  |  |  |  | Increased | increased | 
16 | GGISASPTGN (listed as Lactuca sativa) [SEQ ID NO: 749] | 0.182 | 1.058 | (132% of UTC) | (168% of UTC) | Increased | increased | increases in average lateral root length relative to control [10]: +68%; increases in root hair length relative to control [10]: +32%
17 | GIRDAPAGNE (listed as Macleaya cordata) [SEQ ID NO: 746] | 0.165 | 0.822 | (120% of UTC) | (130% of UTC) | Increased | increased | 
